Data reported in the METLIN SMRT retention time set (Domingo-Almenara et al. 2019).

Assay: gradient 5% acetonitrile 3 min, to 50% in 2 min, to 85% in 15 min, held 3 min, 100 µL/min
Details: column: Zorbax Extend-C18 2.1 x 50 mm; eluents: water / acetonitrile, 0.1% formic acid
Outline: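 Over 3 months, pure standards in mixtures of ~100 molecules were run by HPLC coupled to a quadrupole time-of-flight mass spectrometer in positive and negative ionization mode. The column was a Zorbax Extend-C18 (2.1 × 50 mm, 1.8 μm) at 100 μL/min, eluted with water and acetonitrile each holding 0.1% formic acid, with 40 μL dead and 900 μL dwell volumes. Retention time was determined from adduct peaks chosen by software and checked manually.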

RP-LC retention time [s] | SMILES
842 | COC(=O)C1=CN(c2cc(F)ccc2C)c2cc(F)ccc2S1(=O)=O
805 | Cc1nnc2ccc(-c3noc(Cc4ccc(F)cc4)n3)cn12
1010 | CS(=O)(=O)N1CCC(C(=O)NCc2ccc(Cl)cc2)Oc2ccccc21 (configuration not stated)
914 | COc1ccc(NC(=O)Cn2nc3cc(-c4ccccc4)nc(C)n3c2=O)cc1F
918 | O=C(Nc1cc(-c2ccsc2)no1)C1CCCC1
737 | CCn1cnc(S(=O)(=O)N2CCC(C(=O)NC3CCCCCC3)CC2)c1
870 | Cc1ccc(S(=O)(=O)N2CCN(c3ccc(-c4ccc(F)cc4)nn3)CC2)s1
743 | O=C(CCn1cnc2cc(-c3noc(-c4ccccc4Br)n3)ccc21)N1CCOCC1
738 | CCN1CCCCc2cc(C(=O)N(C)CC(=O)NC)sc21
554 | CC(C)n1c(=O)c(NCc2ccc(N3CCCCC3)cc2)nc2ccncc21
754 | CCC(C)(C)NC(=O)CCNc1c(-c2ccc(F)cc2)nc2cnccn12
797 | CCCCC(=O)N1CCc2c(c(C(=O)N3CCCC(C(=O)Nc4ccccc4C)C3)nn2C)C1 (configuration not stated)
928 | CCc1ccccc1NC(=O)Cc1csc2nc(-c3ccc(C)c(C)c3)cn12
805 | Cn1c(=O)oc2cc(-c3noc(CNS(=O)(=O)c4ccccc4)n3)ccc21
938 | CCc1csc(-c2ccc(N3CCN(C(=O)c4nccc5ccccc45)CC3)nc2)n1
564 | CN(C)c1ccc(CNC(=O)C2CCN(c3cncnc3N3CCCCC3)CC2)cc1
979 | O=c1cc(-c2cccnc2)oc2c1ccc1ccccc12
826 | COc1ccc(Br)c2c1C(=O)CC2
804 | CCOc1ccc(S(=O)(=O)N(C)C2CCc3nn(CC4CC4)c(=O)n3CC2)cc1 (configuration not stated)
667 | COC(=O)c1cnc2nc(C)ccc2c1Nc1cc(OC)ccc1OC
975 | CCOC(=O)c1c(S(=O)(=O)N2CCC(C(=O)NCc3cccc(C)c3)CC2)c(C)n(CC)c1C
905 | CCC(C)NS(=O)(=O)c1cc(-c2nc(C)cs2)n(C)c1C (configuration not stated)
1110 | CCCCN(C)S(=O)(=O)c1ccccc1-c1nc(-c2ccc(F)cc2)no1

RP-LC retention time [s] | SMILES
653 | COCCNC(=O)CN1C(=O)C2CCCCN2c2ccc(C(=O)N3CCCC3)cc21 (configuration not stated)
596 | CCN(CC)CCCNC(=O)Cn1c2ccccc2c2cnn(C)c(=O)c21
899 | CCC(C)NC(=O)c1cn(-c2ccc(-c3nc(C(C)C)no3)cn2)cn1 (configuration not stated)
690 | CCN(CC)c1cc(CNC(=O)Nc2cc(Cl)ccc2OC)ccn1
885 | CCNc1nc(N2CCCC2)nc(-n2cnc(SC)n2)n1
722 | Nc1cc(C2CCN(C(=O)Nc3ccc(Cl)cc3)CC2)no1
646 | Oc1ccc(-c2csc(Nc3ccccn3)n2)cc1
782 | O=C(Cn1cnc2nc(N3CCCC3)ncc2c1=O)Nc1ccc(Cl)cc1C(F)(F)F
671 | Cn1ccc2cc(S(=O)(=O)N3CCC(C(=O)N4CCN(Cc5ccccc5)CC4)CC3)ccc21
852 | Cc1nc(Cn2cccc2C(=O)NCc2cccc(Br)c2)no1
722 | Cc1ccc(CNC(=O)C2CCCN(c3cnc4nccnc4c3)C2)cc1C (configuration not stated)
734 | CC1=C(C(=O)Nc2cc3cn[nH]c3cc2F)C(c2ccc(C(F)(F)F)cc2)CC(=O)N1 (configuration not stated)
704 | CCOc1ccc(NC(=O)NCCc2cn(CC)c3ncccc23)cc1
613 | Cc1cccc2sc(NC(=O)CNC(=O)c3ccc(=O)[nH]c3)nc12
774 | CCS(=O)(=O)N1CCc2c(c(CN(C(=O)c3ccccc3F)c3ccccc3)nn2C)C1
712 | O=C(c1ccc(OCC2CCCN(C(=O)c3ccco3)C2)cc1)N1CCOCC1 (configuration not stated)
674 | Cn1nc(C(=O)N2CCOCC2)c2c1CCN(C(=O)Nc1ccccc1Br)C2
961 | CC1Cc2ccccc2N1S(=O)(=O)c1cc2c3c(c1)CCC(=O)N3CCC2 (configuration not stated)
1020 | CCOc1ccc(-n2c(=O)c3sccc3n(Cc3nc(-c4ccccc4OCC)no3)c2=O)cc1
979 | Cc1ccc(-c2csc(NC(=O)CCCOc3ccc(Cl)cc3)n2)cc1
731 | Cn1ncc2c(Nc3ccc(O)cc3)nc(Cl)nc21
645 | O=C(c1c(OCC2CC2)cc(=O)n2c1CCCCC2)N1CCOCC1
957 | CCOC(=O)COc1ccccc1C1C(C(=O)OC)=C(C)NC2=C1C(=O)c1ccccc12 (configuration not stated)

RP-LC retention time [s] | SMILES
1050 | CC1CCCC(NC(=O)CCn2cnc3onc(-c4ccc(F)cc4)c3c2=O)C1C (configuration not stated)
808 | CC(C)=CC1C(C(=O)O)C1(C)C (configuration not stated)
919 | c1ccc(CCc2nc(-c3ccnc(N4CCOCC4)c3)no2)cc1
944 | O=C(Cn1cccc1-c1nc(-c2ccc(F)cc2)no1)Nc1ccc2c(c1)OCCO2
639 | CN(C)CC1(O)CCC2(CCN(C(=O)CCC3CCCC3)CC2)CC1
580 | Cc1cc(N2CCCCC2)n2nc(CN3CCC4(CC3)OCCO4)nc2n1
777 | Cc1cnc(C(=O)N2CC(c3nc(CCOC4CCCC4)no3)C2)cn1
786 | O=C(CSc1cccc2cccnc12)NCCc1ccc(Cl)cc1
1180 | CCOc1nc2ccccc2nc1N1CCCC(C(=O)Nc2ccc(OC)cc2OC)C1 (configuration not stated)
870 | O=C(CCc1nc(CSc2nnc(-c3ccccc3)o2)no1)Nc1ccccc1F
1050 | COc1ccc(-c2nc(Nc3cnc(SC)nc3)sc2C)cc1
771 | Cc1ccc(-c2nnc(CC(=O)NCCc3cccs3)o2)cc1
624 | CC(C)n1cnc2cc(CNC(=O)c3ccc4c(c3)OCO4)ccc21
722 | Cc1cc(C)c2c(N3CCSCC3)nc(C(=O)N3CCN(c4ccccc4)CC3)nc2n1
892 | Cn1c(=O)n(C)c2cc(CNc3ccc(Cl)cc3)ccc21
715 | CCc1nnc(NC(=O)C2CC(=O)N(CCc3c[nH]c4ccc(Cl)cc34)C2)s1 (configuration not stated)
553 | CCC(C)(C)C(=O)N1CC(c2nc(-c3ccccc3)no2)C2(CCOCC2)C1 (configuration not stated)
824 | CCCNC(=O)C1CCN(S(=O)(=O)c2ccc3c(c2)sc(=O)n3CCC)CC1
868 | Cc1c(Cl)cccc1NC(=O)CCCn1cccc1
673 | O=C(c1ccsc1)N1CCCn2cc(-c3ccccc3F)nc21
727 | CCOc1ccc(CC(=O)NC2CCN(c3cc(-c4cccs4)[nH]n3)C2)cc1OCC (configuration not stated)
670 | Cc1ccc(-n2ncc3c(NCCCN(C)C)ncnc32)cc1Cl
1090 | Cc1cccc(-c2noc(-c3nn(CC(=O)NC(C)C)c4ccccc34)n2)c1

RP-LC retention time [s] | SMILES
783 | O=C(NCc1ccco1)C1CCN(Cc2cc3ccccc3n2Cc2ccc(Cl)cc2)CC1
918 | COc1ccc2c(c1)C=C(C(=O)NC1CCCC1)C=CO2
668 | O=C(c1cn2c(n1)CCCC2)N(Cc1ccccc1)Cc1ccco1
729 | COCCC(=O)Nc1ccc(-c2nc(Cn3nc(C)cc3C)c(C)o2)cc1
615 | CCN1CCN(C(=O)C2CCN(S(=O)(=O)c3cc(-c4noc(C)n4)cs3)CC2)CC1
714 | O=C(Cc1nc(-c2ccccc2)n[nH]1)NC1CCCCC1
951 | COC(=O)C1C(=O)C2=C(CC1C)NC(C)=C(C(=O)OC(C)C)C2c1cccc(F)c1 (configuration not stated)
1260 | Clc1ccc(-c2noc(Cc3nc(-c4ccc5c(c4)OCO5)cs3)n2)cc1
722 | O=C(NCCc1c[nH]c2ccccc12)C1CCN(c2ncnc3c2oc2ccccc23)CC1
1320 | CCn1ccc2c(cc(C(=O)Nc3ccc(Cl)cc3C)n2C)c1=O
732 | COc1ccc(NC(=O)Cn2c(C)cc(-c3nnc(C)o3)c2C)cc1
674 | O=C(CSc1nc2ccccc2o1)NCCn1nc(-c2ccco2)ccc1=O
558 | CCOc1ccc(CC(=O)NCC2CCN(Cc3ccco3)CC2)cc1
709 | Cc1nc2ccc3nc(NC(=O)C4CCN(S(C)(=O)=O)CC4)sc3c2s1
573 | COCCOC1CN(C2CCN(Cc3cccc(C)c3)CC2)C12CCCCC2 (configuration not stated)
1000 | Cc1noc(C)c1S(=O)(=O)N(Cc1cccs1)Cc1cccn1C
922 | O=C(C1COc2ccccc2O1)N1CCCC(c2nnc(-c3ccccc3F)s2)C1 (configuration not stated)
583 | O=C1CCC(C(=O)N2C[C@@H](COCC3CC3)[C@H](c3ccccn3)C2)=NN1
784 | O=C1CC(c2ccc(O)cc2)Oc2cc(O)cc(O)c21 (configuration not stated)
1020 | Cc1ccc(C(O)Cn2ccn3nc(-c4ccc(F)cc4)cc3c2=O)cc1C (configuration not stated)

SMILES | RP-LC retention time [s]
CC1Oc2ccccc2C=C1/C=C1\Oc2cc(OC(=O)N(C)C)ccc2C1=O (configuration not stated) | 795
Cn1cc(C(=O)NCc2ccccn2)c2cccnc21 | 552
COc1ccc2c(c1)C1(CCN(C(=O)C(C)C)C1)C(=O)N2C (configuration not stated) | 701
